Results on seven compounds are retold here after paper PMC3124571 (Biochemical pharmacology, 2011).

Data set [1] deals with TB formation (bupropion carbonyl reduction); carbonyl reductase (menadione), aldo-ketoreductase (flufenamic acid). The data set is described as follows: in vitro. The settings on record: baboon (Papio cynocephalus), liver microsomes, probe bupropion 30 µM (≈Km). (In general: Liver microsomes are a subcellular fraction often used to study metabolism.)
For data set [2] the test system is unchanged. Put plainly: in vitro. The settings on record: baboon (Papio cynocephalus), placental microsomes, probe bupropion 30 µM (≈Km).
The test system of data set [3] is EB formation (bupropion carbonyl reduction); carbonyl reductase (menadione), aldo-ketoreductase (flufenamic acid). Put plainly: in vitro. Particulars: baboon (Papio cynocephalus), placental microsomes, probe bupropion 30 µM (≈Km).
Data set [4] can be described thus: Biotransformation of bupropion by baboon placental microsomes. The settings on record: baboon (Papio cynocephalus), pH 7.4, apparent Km.
Data set [5] is described as follows: Biotransformation of bupropion by baboon hepatic microsomes. Particulars: female, baboon (Papio cynocephalus), liver microsomes, pH 7.4, apparent Km.
Data set [6] relates to baboon hepatic microsomes. Described as above.
Data set [7] concerns the target carbonyl-reducing enzymes of baboon placental microsomes. Type of data set: biochemical. The settings on record: read-out: IC50 (EB formation, placental microsomes).
The target is the same in data set [8]. Type of data set: biochemical. The settings on record: read-out: IC50 (TB formation, placental microsomes).
The target of data set [9] is carbonyl-reducing enzymes of baboon hepatic microsomes. Type of data set: biochemical. Particulars: read-out: IC50 (TB formation, hepatic microsomes); n = 3.
The test system of data set [10] is OH-BUP formation by baboon hepatic microsomes.
Data set [11] concerns TB and EB formation by baboon placental microsomes. The settings on record: placental microsomes 1 mg/ml, bupropion 30 µM, 40 min; menadione 100µM, 18β-GA 0.1µM, flufenamic acid 5µM, barbital, 4-methylpyrazole, dicumarol 500µM.
Data set [12] deals with TB and EB formation by baboon hepatic microsomes. The settings on record: hepatic microsomes 1 mg/ml, bupropion 30 µM, 40 min; menadione 100µM, 18β-GA 0.1µM, flufenamic acid 5µM, barbital, 4-methylpyrazole, dicumarol 500µM.
The subject of data set [13] is EB formation (bupropion carbonyl reduction); aldo-ketoreductase (flufenamic acid). Put plainly: in vitro. Particulars: baboon (Papio cynocephalus), liver microsomes, probe bupropion 30 µM (≈Km).

Each structure is given as a SMILES string. Where two headings read alike, the source gives them in different places.

The IC50 is the point on the concentration scale where inhibition reaches its midpoint. As for `CC1=CC(=O)c2ccccc2C1=O` [menadione], the IC50 at 40 min in data set [1] is 47 µM; in data set [2], 27.9 µM; in data set [3], 30.3 µM.

A word on the Km: it is the concentration of substrate that gives half-maximal velocity. `CC(NC(C)(C)C)C(=O)c1cccc(Cl)c1` (stereo not shown) [bupropion]: the Km at 40 min in [4] (reduction of bupropion to EB) stood at 32 ± 14 µM; in data set [4] (reduction of bupropion to TB) it was 20 ± 14 µM. For the same compound, the Km at 30 min came out at 36 ± 6 µM in [5] (hydroxylation of bupropion to OH-BUP, bupropion 10–400µM); 32 ± 3 µM in data set [5] (reduction of bupropion to EB); 28 ± 2 µM in data set [5] (reduction of bupropion to TB). In [6], the “Vmax, EB formation” value is 46 ± 8 pmol mgprotein^−1 min^−1. Moreover, the “Vmax, TB formation” value in data set [6] was determined as 116 ± 19 pmol mgprotein^−1 min^−1.

Turning to `CC1(C)[C@@H](O)CC[C@]2(C)[C@H]3C(=O)C=C4[C@@H]5C[C@@](C)(C(=O)O)CC[C@]5(C)CC[C@@]4(C)[C@]3(C)CC[C@@H]12` [18β-GA, 18β-glycyrrhetinic acid], the figures for the IC50 in [7], in data set [8] and in [9] were 0.022 µM, 0.025 µM and 0.015 µM, respectively.

Usually inhibition stands for the drop in the measured response relative to a control, in per cent. Higher therefore signals a strong effect. With `C=C(C)[C@@H]1CCC2=CC(=O)C[C@@H](C)[C@]2(C)C1` [(+)-nootkatone], the inhibition in data set [10] lay in the range of 10 to 15%.

Regarding `CC1(C)[C@@H](O)CC[C@]2(C)[C@H]3C(=O)C=C4[C@@H]5C[C@@](C)(C(=O)O)CC[C@]5(C)CC[C@@]4(C)[C@]3(C)CC[C@@H]12` [18β-glycyrrhetinic acid], in data set [11], the “inhibition of EB formation” value was found to be 80% and the “inhibition of TB formation” value was found to be 80%. Besides, the “inhibition of TB formation” value in [12] turned out to be 80%.

Regarding `CCC1(CC)C(=O)NC(=O)NC1=O` [barbital], in data set [11], the “inhibition of EB formation” value is on record as “did not affect” and the “inhibition of TB formation” value is listed as “did not affect”. Also, in data set [12], the “inhibition of EB formation” value is listed as “did not affect” and the “inhibition of TB formation” value is “did not affect”.

As to `O=C(O)c1ccccc1Nc1cccc(C(F)(F)F)c1` [flufenamic acid], the IC50 at 40 min in data set [1] is 11.4 µM; in [13] it was 7.7 µM; in data set [2], 9.9 µM; in data set [3], 5.6 µM. Moreover, the inhibition at 40 min in [1], in data set [2] and in [3] was 40% each time.
